Columns and labels:
R5X4 strain (89.6) = assay: HIV RT activity in MDM infected with R5X4 strain; assay type: cell-based
Procedure: Based upon their differential use of the major HIV co-receptors, HIV isolates have been referred to as R5, X4 or R5X4 strains, respectively (29). The M-tropic (macrophage-tropic) R5 prototype strains (Bal and ADA), dual tropic strain (89.6) and X4 primary isolate (UG024), were obtained from the NIH AIDS Reagent Program. Primary M-tropic isolates (BL-6 and CSF-6) were isolated from the blood and cerebrospinal fluid cells, respectively, of a subject with AIDS.
The cells were also incubated with SP and/or anti-SP antibody. In this case, SP was incubated with (1:1000 dilution in 10% FCS DMEM) or without anti-SP antibody at room temperature for 10 min and then the mixture was added to the cell cultures for 2 h. When the cells were treated with the combination of CP-96,345 and SP, or CP-96,345, SP and anti-SP antibody, CP-96,345 was incubated with the cell culture for 10 min and then SP was added to the MDM or CP-96,345, SP and anti-SP (1:1000 in 10% FCS DMEM) were incubated for 10 min at room temperature and the mixture was incubated with the MDM for 2 h before infection with HIV. Untreated MDM served as controls. The cells were treated prior to, during, and throughout the infection. […]

HIV LTR promoter = assay: HIV LTR-driven CAT activity assay in U38 cells; assay type: cell-based
Excerpt: ACH-2 and U38 cell lines (25, 26) were obtained from the NIH AIDS Reagent Program. DNA extracted from ACH-2 cells was used as a positive standard for HIV DNA PCR as previously reported (27). The U38 cell line contains stably integrated, silent copies of the HIV LTR (long terminal repeat) promoter linked to a CAT (chloramphenicol acetyltransferase) gene and was used to study the effect of SP and/or CP-96,345 and R-113281 on the activation of HIV LTR promoter.
Chloramphenicol acetyltransferase (CAT) activity assay:U38 cells (2×10^6 cells) were incubated with different concentrations of SP and/or CP-96,345 or R-113281 for 48 h. Untreated U38 cells were used as a background control. Cellular proteins were extracted using 1× Reporter Lysis Bufffer (Promega Corp., Madison, Wis.). The lysates were incubated with a mixture containing 0.15 μCi of ^14C-labeled chloramphenicol (DuPont Inc., Boston, Mass.) and 200 μg/ml of n-Butyryl CoA (Promega Corp., Madison, Wis.) in a total volume of 125 μl at 37° C. for 3 h. The acetylated forms of chloramphenicol were extracted with xylene (Aldrich Chemical Company, Milwaukee, Wis.). CAT activity of each sample was quantified using a liquid-scintillation counter (Packard Instrument Company, Downers Grove, Ill.). The results were expressed as the ratio of CAT activity (CPM) of the SP and/or CP-96,345-treated or R-113281-treated U38 to that of the background control.

CCR5 = assay: Macrophage receptor expression by flow cytometry; assay type: cell-based, human
Procedure: The cells were removed from the culture plate and then resuspended in 100 μl of phosphate-buffered saline (PBS). After incubation with 20 μl of either anti-CCR5-FITC or anti-CXCR4-FITC or anti-CD4-FITC or anti-CD14-FITC for 45 min at 4° C., the cells were washed twice with PBS and fixed with 1% paraformaldehyde in PBS. Fluorescein-conjugated control antibodies were isotype-matched IgG. Fluorescence was analyzed on an EPICS-Elite flow cytometer (Beckman-Coulter Electronics, Hialeah, Fla.).

ADA Env-pseudotyped HIV = assay: Pseudotype reporter virus entry assay, ADA Env; assay type: cell-based
Procedure: (§1) Pseudotype reporter virus entry assay: Recombinant luciferase-encoding HIV virions pseudotyped with Env from the M-tropic ADA (CCR5-dependent) and amphitropic murine leukemia virus (MLV) (CCR5-independent) were used to study HIV infection of MDM incubated with or without CP-96,345 or R-113281. The Env-deleted luciferase reporter plasmid PNL-Luc-E-R+ (kindly provided by N. Landau) was cotransfected into 293T cells along with plasmids encoding the ADA or MLV Env genes as previously described (31). Supernatants were collected 48 h later, assayed for p24^Gag antigen content, and frozen at −80° C. MDM (2.5×10^5 cells/well, in 48-well plates) were incubated overnight with or without CP-96,345 or R-113281 and then infected using 20 ng of p24^Gag antigen equivalent of each pseudotype HIV per well, in the presence of polybrene (7.5 μg/ml). At 72 h postinfection, the cells were lysed in 150 μl of 0.5% Triton-X-100 in PBS. Lysate (50 μl) was mixed with an equal volume of luciferase substrate (Promega, […].) and luciferase activity was determined in a microtiter plate luminometer (Dynex Technologies, Chantilly, Va.). The results were expressed as relative light units (RLU) in CP-96,345-treated or R-113281-treated and infected MDM as a percentage of that in untreated and infected MDM.

MLV Env-pseudotyped HIV = assay: Pseudotype reporter virus entry assay, MLV Env; assay type: cell-based, murine leukemia virus
Procedure: as §1

[1] = CP-96,345 10^−8 and 10^−7M overnight (FIG. 10)
[2] = R-113281 10^−7 and 10^−6 overnight (FIG. 13)

Compound	replication of R5X4 strain 89.6 (RT activity) (R5X4 strain (89.6); CP-96,345 10^−7M, 8 days after infection (FIG. 6))	effect on SP activation of HIV LTR-driven CAT activity (HIV LTR promoter; SP 10^−8M, CP-96,345 10^−6M, 48 h (FIG. 7))	CCR5 receptor expression on MDM (percentage positive cells) (CCR5; overnight/24 h, among CD4, CCR5, CXCR4 and CD14 only CCR5 changed (FIG. 8))	M-tropic ADA Env-pseudotyped HIV infection of MDM (luciferase activity) (ADA Env-pseudotyped HIV; [1])	MLV Env-pseudotyped HIV infection of MDM (luciferase activity) (MLV Env-pseudotyped HIV; [1])	replication of R5X4 strain (RT activity) (R5X4 strain (89.6); R-113281 10^−6 M, 8 days after infection (FIG. 14))	effect on SP activation of HIV LTR-driven CAT activity (HIV LTR promoter; SP (10^−8M), R-113281 10^−6M, 48 hours (FIG. 16))	CCR5 protein expression (percentage CCR5 positive cells, flow cytometry) (CCR5; R-113281 10^−6M, 24 hours (FIG. 15B))	M-tropic ADA Env-pseudotyped HIV infection of MDM (luciferase activity) (ADA Env-pseudotyped HIV; [2])	MLV-Env pseudotyped HIV infection of MDM (luciferase activity) (MLV Env-pseudotyped HIV; [2])
COc1ccccc1CN[C@H]1C2CCN(CC2)[C@H]1C(c1ccccc1)c1ccccc1 [CP-96,345, 2S, 3S)-cis-2-(diphenylmethyl)-N-[(2-methoxyphenyl)-methyl]-1-azabicyclo[[2.2.2]octan-3-amine]	inhibited to a lesser extent	abrogated	down-regulated	inhibited	failed to block	–	–	–	–	–
COc1cc(C(=O)N2CCO[C@](CCN3CCC4(CC3)c3ccccc3C[S@+]4[O-])(c3ccc(Cl)c(Cl)c3)C2)cc(OC)c1OC.Cl [R-113281]	–	–	–	–	–	inhibited to a lesser extent	abrogated	inhibited	inhibited	failed to block
